Assays:
Settings in all cases: 72 h
[1] = tested on: HepG2; assay: relative viability EC50 (midpoint between 100% and the lowest measured viability); higher = less toxic
[2] = tested on: Calu-3; assay: as above
[3] = tested on: U2OS; assay: as above
[4] = tested on: Vero E6; assay: as above
[5] = tested on: Caco-2; assay: as above
[6] = tested on: HepG2; assay: drug sensitivity score (DSS) for viability; higher = more toxic; extreme values may be limits of the assay
[7] = tested on: Calu-3; assay: as above
[8] = tested on: U2OS; assay: as above
[9] = tested on: Vero E6; assay: as above
[10] = tested on: Caco-2; assay: as above
[11] = tested on: HepG2; assay: cell viability relative to DMSO; higher = less toxic
[12] = tested on: Calu-3; assay: as above
[13] = tested on: U2OS; assay: as above
[14] = tested on: Vero E6; assay: as above
[15] = tested on: Caco-2; assay: as above

| SMILES | relative viability EC50 [1] [µM] | relative viability EC50 [2] [µM] | relative viability EC50 [3] [µM] | relative viability EC50 [4] [µM] | relative viability EC50 [5] [µM] | drug sensitivity score [6] | drug sensitivity score [7] | drug sensitivity score [8] | drug sensitivity score [9] | drug sensitivity score [10] | cell viability ([11]; 1 nM) [%] | cell viability ([11]; 10 nM) [%] | cell viability ([11]; 100 nM) [%] | cell viability ([11]; 1000 nM) [%] | cell viability ([11]; 10000 nM) [%] | cell viability ([12]; 1 nM) [%] | cell viability ([12]; 10 nM) [%] | cell viability ([12]; 100 nM) [%] | cell viability ([12]; 1000 nM) [%] | cell viability ([12]; 10000 nM) [%] | cell viability ([13]; 1 nM) [%] | cell viability ([13]; 10 nM) [%] | cell viability ([13]; 100 nM) [%] | cell viability ([13]; 1000 nM) [%] | cell viability ([13]; 10000 nM) [%] | cell viability ([14]; 1 nM) [%] | cell viability ([14]; 10 nM) [%] | cell viability ([14]; 100 nM) [%] | cell viability ([14]; 1000 nM) [%] | cell viability ([14]; 10000 nM) [%] | cell viability ([15]; 1 nM) [%] | cell viability ([15]; 10 nM) [%] | cell viability ([15]; 100 nM) [%] | cell viability ([15]; 1000 nM) [%] | cell viability ([15]; 10000 nM) [%] |
| --- | --- | --- | --- | --- | --- | --- | --- | --- | --- | --- | --- | --- | --- | --- | --- | --- | --- | --- | --- | --- | --- | --- | --- | --- | --- | --- | --- | --- | --- | --- | --- | --- | --- | --- | --- |
| Cc1ccc(S(=O)(=O)OCC(=O)Nc2ccc(C(=O)O)c(O)c2)cc1 [STAT3-inhibitor-VI] | > 10 | > 10 | > 10 | > 10 | > 10 | 0 | 0 | 0 | 0 | 0 | 102 | 104 | 96.2 | 92.1 | 95.6 | 102 | 95.1 | 102 | 96.2 | 101 | 103 | 96 | 101 | 104 | 99 | 98.3 | 97.6 | 94.1 | 98.9 | 89.8 | 101 | 93.1 | 90.6 | 90.8 | 99.9 |
| N#Cc1ccc(N(Cc2ccc(Br)cc2)n2cnnc2)cc1 [YM-511] | > 10 | > 10 | > 10 | > 10 | > 10 | 0 | 0 | 0 | 0 | 0.2 | 104 | 102 | 99.8 | 96.6 | 98 | 95.9 | 97.8 | 92.4 | 97.4 | 99.3 | 104 | 96.4 | 103 | 98.4 | 101 | 103 | 98 | 100 | 106 | 96.6 | 108 | 92 | 94.1 | 92 | 88.3 |
| CCc1cc2c(c(CC)n1)CCC(=O)N2Cc1ccc(-c2ccccc2-c2nnn[nH]2)cc1 [ZD-7155] | > 10 | > 10 | > 10 | > 10 | > 10 | 0 | 0 | 0 | 0 | 0 | 86.1 | 97.8 | 91.1 | 99.6 | 102 | 111 | 99.8 | 97 | 95.3 | 94.7 | 96.2 | 97.4 | 102 | 99.3 | 101 | 92.5 | 96.2 | 91.6 | 97.1 | 102 | 97.5 | 86.9 | 91.5 | 96.8 | 109 |

From the supplement of paper PMC13380429
